“And” between values parts separate entries of the source, which are not always exact repeats. Identical values can stand only once.
Experiments:
[1] = test system: HLA-B*1502; assay: Association of HLA-B*1502 with drug-induced SJS/TEN (HLA genotyping, case-control); set-up: species or system human; details: for number of HLA-B*1502-positive SJS/TEN patients who received the drug: among 17 carriers of 53 SJS/TEN patients who received other drugs
Method: 73 tegretol-tolerant patients were included as controls. […] All of these patients were subjected to genotyping. […] SSO (DYNAL Biotech Ltd.; Bromborough, UK). […] Marcel G. J. […] To some patients, SNP genotyping was performed using high throughput MALDI-TOF mass spectrometry. Briefly, primers and probes were designed using the Spectro[…] software (Sequenom, San Diego, Calif., USA). Multiplex polymerase chain reactions (PCR) were performed, the unincorporated dNTPs were dephosphorylated using the shrimp alkaline phosphatase (Hoffman-LaRoche, Basel, Switzerland), followed by primer extension. The purified primer extension reaction was spotted onto a 384-element silicon chip (SpectroCHIP, Sequenom), analyzed using a Bruker Biflex III MALDI-TOF SpectroREADER mass spectrometer (Sequenom) and spectra processed with […] (Sequenom).

[2] = test system: HLA-Cw*0801; assay: Marker of B*1502 ancestral haplotype and ADRs: HLA-Cw*0801
From the text: (§1) All of these patients were subjected to genotyping. Briefly, reagents for performing a reverse line blot assay using sequence-specific oligonucleotide (SSO) were purchased from DYNAL Biotech Ltd. (Bromborough, UK). PCR products were generated using biotinylated primers for the second and the third exons of the HLA class I or class II loci, and then hybridized to a line blot of SSO of probes immobilized on a nylon membrane. The presence of biotinylated PCR product bound to a specific probe is detected using streptavidin-horseradish peroxidase (HRP) and a chromogenic, soluble substrate to produce a blue “line” at the position of the positive probe. The probe reactivity pattern was interpreted by the genotyping software Dynal RELI™ SSO (DYNAL Biotech Ltd.; Bromborough, UK). Potential ambiguities were further resolved by sequence-based typing and DNA sequencing performed according to the IHWG Technical Manual (International Histocompatibility Working Group), see Genomic Analysis of the Human MHC DNABased Typing for HLA Alleles and Linked Polymorphisms. Marcel G. J. Tilanus, Editor in Chief, ISBN No. 0-945278-02-0.

[3] = test system: HLA-Cw*0806; assay: Marker of B*1502 ancestral haplotype and ADRs: HLA-Cw*0806
From the text: as §1

[4] = Clinical phenotype of drug-induced cutaneous ADR in individual patients; assay type: in vivo, human
Method: A total of 238 ADR patients (Mongoloids or Mongoloid descendents) were recruited either from Chang Gung Memorial Hospital or from several other medical centers throughout Taiwan for this study. Their drug-taking history including dosage and duration, and the phenotypes of ADRs were recorded. The diagnostic criteria of clinical morphology were defined according to Roujeau, J. Invest Dermatol., 102(6):28S-30S, 1994. […] SJS, overlap SJS-TEN and TEN are collectively referred to as SJS/TEN.

[5] = Onset of allopurinol-induced ADR symptoms; assay type: in vivo, human
[6] = test system: Cw*0302; details: number (%)
[7] = test system: A*3303; details: number (%)
[8] = test system: DRB1*0301; details: number (%)
[9] = test system: HLA-B*5801; assay: Association of HLA-B*5801 with allopurinol-induced severe ADRs (HSS, SJS, TEN); details: for B*5801 frequency, Allopurinol-tolerant: n = 98
[10] = test system: CBZ-reactive T cells; assay: Cross-reactivity of CBZ-reactive T cells (interferon-γ ELISPOT); assay type: cell-based, human; details: T cells of HLA-B*1502 patients with CBZ-induced SJS/TEN, autologous B cells, 24 hours
From the text: Two patients having CBZ-induced SJS/TEN were recruited from Chang Gung Memorial Hospital. […] Genomic DNAs were extracted from the patients using […] DNA purification system (Gentra systems, Minnesota, USA). The HLA-B alleles were verified using sequence-specific oligonucleotide reverse line blots (DYNAL Biotech Ltd., Bromborough, U.K.).
Peripheral blood mononuclear cells (PBMCs) were isolated from the patients by Ficoll-Isopaque (Pharmacia Fine Chemicals, Piscataway, N.J.) density gradient centrifugation. A portion of the PBMCs were transformed by Epstein-Bar virus to establish autologous B-cell lines.
T cells reactive to CBZ were expanded as described below. PBMCs prepared from the patients were cultured in complete RPMI medium containing 10% heat-inactivated human serum, IL-2 (25 U/ml), and CBZ (25 μg/ml)(Sigma) in a 37° C., 5% CO2 incubator for 7 days. The T cells were then expanded by co-culturing with irradiated (50Gy) autologous B cells in the presence of CBZ for 10 days. After 2 cycles of the above co-culturing procedure, the CBZ-activated T cells were collected and subjected to ELISPOT assays (eBioscience).
The CBZ-reactive T cells were tested for their cross-reactivity to compounds e.g., CBZ 10, 11-epoxide, Oxcarbazepine (brand name: trileptal), Licarbazepine, and sunlindac. Briefly, T lymphocytes (5×10^3 cells) were mixed with autologous B cells (5×10^4 cells) in 200 μl RPMI medium containing 10% FBS in the presence or absence of a test compound. The cells were then incubated for 24 hours in the wells of an ELISPOT plate coated with anti-interferon γ antibodies (Millipore). After incubation, the supernatant of the cell culture was collected and interferon-γ contained therein was detected using antibody-mediated methods known in the art.

[11] = test system: HLA-B*4601; assay: Association of HLA-B*4601 with CBZ-induced milder cutaneous ADRs (HLA genotyping); set-up: species or system human
From the text: 73 tegretol-tolerant patients were included as controls. Volunteers from the general population of Taiwanese (n=94; age range: 20 to 80 years) were also recruited.
All of these patients were subjected to genotyping.
In contrast, the allele was only found in 26% (19/73) of the CBZ-tolerant group.

[12] = test system: HLA-A*1101
From the text: as §1

[13] = test system: HLA-DRB1*1202
From the text: as §1

[14] = relative to the allopurinol-tolerant group

Oc1ncnc2[nH]ncc12 [allopurinol, Allopurinol]
number of HLA-B*1502-positive SJS/TEN patients who received the drug [1]: 2 | HLA-B*1502 frequency, Allopurinol SJS/TEN ([1]; n = 17, carriers, number (%)): 1 (5.8%) | HLA-Cw*0801 frequency, Allopurinol SJS/TEN ([2]; n = 17, number (%)): 2 (11.7%) | HLA-Cw*0806 frequency, Allopurinol SJS/TEN ([3]; n = 17, number (%)): 0 (0%) | Phenotype ([4]; individual patient, cutaneous ADR to the suspected drug): SJS (11×) and SJS and vasculitis on leg and SJS, and lichenoid and TEN | Phenotype ([4]; individual patient, cutaneous ADR to the suspected drug, listed as Allopurinol): SJS | Phenotype ([4]; individual patient, cutaneous ADR to the suspected drug, listed as alloprinol): SJS | second attack after re-exposure to allopurinol ([5]; 2 patients): ≤ 2 days | onset of HSS symptoms after start of allopurinol exposure ([5]; all of the 31 patients): ≤ 2 months | Cw*0302 frequency, Allopurinol-ADRs ([6]; n = 31): 29 (93.5%) | Cw*0302 frequency, Allopurinol-tolerant ([6]; n = 98): 15 (15.3%) | A*3303 frequency, Allopurinol-ADRs ([7]; n = 31): 20 (64.5%) | A*3303 frequency, Allopurinol-tolerant ([7]; n = 98): 18 (18.4%) | DRB1*0301 frequency, Allopurinol-ADRs ([8]; n = 31): 21 (67.7%) | DRB1*0301 frequency, Allopurinol-tolerant ([8]; n = 98): 14 (14.3%) | sensitivity of HLA-B*5801 for allopurinol-induced severe ADRs [9]: 100% | specificity of HLA-B*5801 for allopurinol-induced severe ADRs [9]: 84% | Odds ratio (Allopurinol-ADRs/Normal), B*5801 ([9]; 31 ADR patients vs 93 normal subjects): 241 | Odds ratio (Allopurinol-ADRs/Tolerant), B*5801 ([9]; 31 ADR patients vs 98 tolerant patients): 315 | B*5801 frequency, Allopurinol-ADRs (severe ADRs) ([9]; n = 31, carriers, number (%)): 31 (100%) | B*5801 frequency, Allopurinol-tolerant ([9]; carriers, number (%)): 16 (16.3%) | B*5801 frequency, Allopurinol-tolerant ([9]; carriers, number (%), listed as Allopurinol): 16 (16.3%)^1 | negative predictive value, absence of HLA-B*5801, allopurinol-induced ADRs [9, 14]: 100% | positive predictive value, presence of HLA-B*5801, allopurinol-induced ADRs [9, 14]: 66%

NC(=O)N1c2ccccc2CC(=O)c2ccccc21 [Oxcarbazepine, 5H-Dibenz[b,f]azepine-5-carboxamide, 10,11-dihydro-10-oxo]
cross-reactivity of CBZ-reactive T cells to the compound [10]: cross-reactive

CC1(C)S[C@@H]2[C@H](NC(=O)[C@H](N)c3ccc(O)cc3)C(=O)N2[C@H]1C(=O)O [amoxicillin]
number of HLA-B*1502-positive SJS/TEN patients who received the drug [1]: 2

CC1=C(CC(=O)O)c2cc(F)ccc2/C1=C\c1ccc([S+](C)[O-])cc1 (stereo not drawn) [Sulindac]
cross-reactivity of CBZ-reactive T cells to the compound [10]: not

(S)-(−)-10-acetoxy-10,11- dihydro-5H-dibenzo/b,f/ azepine-5-carboxamide [Licarbazepine]
cross-reactivity of CBZ-reactive T cells to the compound [10]: cross-reactive

carbamazepine [CBZ]
HLA-B*1502 frequency, CBZ-tolerant patients ([1]; N = 73, carriers, number (%)): 3 (4.1%) | HLA-B*1502 frequency, patients with CBZ-induced SJS/TEN ([1]; Taiwanese patients, N = 42, carriers, number (%)): 42 (100%) | HLA-B*1502 frequency, CBZ Milder ADRs ([1]; n = 16, carriers, number (%)): 0 (0%) | HLA-B*1502 carriers among SJS/TEN patients who received the drug ([1]; text of Example 3): 100% | HLA-B*1502 carriers in the drug-tolerant group ([1]; text of Example 3): 4.1% | negative predictive value of B*1502 for CBZ-induced SJS/TEN ([1]; tolerant group as control): 100% | positive predictive value of B*1502 for CBZ-induced SJS/TEN ([1]; tolerant group as control): 96.0% | sensitivity of B*1502 for CBZ-induced SJS/TEN ([1]; tolerant group as control): 100% | specificity of B*1502 for CBZ-induced SJS/TEN ([1]; tolerant group as control): 95.89% | Odds Ratio, B*1502, CBZ-induced SJS/TEN ([1]; vs Controls1: patients who had milder ADRs other than SJS, N = 142): 1194.47 | Odds Ratio, B*1502, CBZ-induced SJS/TEN ([1]; vs Controls2: general Taiwanese population, N = 94): 1383.2 | Odds Ratio, B*1502, CBZ-induced SJS/TEN ([1]; vs Controls3: CBZ-tolerant patients, N = 73): 1712 | HLA-B*4601 carriers among patients with milder reactions to CBZ ([11]; 10 out of 16): 62.5% | HLA-B*4601 carriers in the CBZ-tolerant group ([11]; 19/73): 26% | odds ratio, B*4601, CBZ-induced milder cutaneous ADRs ([11]; vs CBZ-tolerant group): 4.73 | HLA-Cw*0801 frequency, CBZ SJS/TEN [2]: 38 (90%) | HLA-Cw*0801 frequency, CBZ Tolerant [2]: 10 (13.7%) | HLA-Cw*0806 frequency, CBZ SJS/TEN [3]: 3 (7.1%) | HLA-Cw*0806 frequency, CBZ Tolerant [3]: 0 (0%) | HLA-A*1101 frequency, CBZ SJS/TEN [12]: 31 (73.8%) | HLA-DRB1*1202 frequency, CBZ SJS/TEN [13]: 35 (83.3%) | Phenotype ([4]; human, in vivo): SJS

NC(=O)N1c2ccccc2C2OC2c2ccccc21 (stereo not drawn) [CBZ 10, 11-epoxide]
cross-reactivity of CBZ-reactive T cells to the compound [10]: cross-reactive

— US7943309B2, “HLA alleles associated with adverse drug reactions and methods for detecting such” (Pharmigene Inc., priority 2006, dated 2011)
